# Several values for one entry are separate records, joined by “and”; a condition that tells them apart may be missing. Equal values may be shown once. Read-outs that look alike come from different tables or passages of the source.
# Key:
# [1] = test system: CF-1 mice; test: Anticonvulsant test: intravenous metrazol (pentylenetetrazol) infusion, time to twitch and seizure; format: in vivo; settings: individual CF-1 mouse (Entry)
# Experimental: CF-1 mice were used in this study. Number 20 PE tubing to cannulate a mouse tail vein was used. An infusion pump was used to deliver a solution at a rate of 0.34 mL/min. A hemostat was used to prevent backflow in the PE tubing before the experiment stated. To begin the experiment, the hemostat that was clamped to the PE 20 tubing was removed, the infusion of the solution was started into the tail IV of the mouse, and the timer was started.
# The study reflects the time in seconds from the start of the infusion to the time of twitch and onset of seizure, or 90 seconds, whichever is sooner. When the seizure occurs, the infusion is turned off.
# As a control, metrazol (pentylenetetrazol) in a 0.5% solution (5 mg/mL) in water was prepared. Pentylenetetrazol is used as a control to study seizure phenomena in and to identify compounds that may control seizure susceptibility. Solutions of 8 M butyric acid and 1.5 M 3-hydroxybutyric acid were made.
# The time to twitch and time to seizure of the mouse in seconds is recorded in Tables 3-5, below.
# [2] = test system: mice; settings: intravenously; for Observed effect on the animals: 62.5 mM solution in intralipid
# [3] = test system: Tadpoles; test: Tadpole movement suppression (anesthetic efficacy); format: in vivo
# Experimental: Tadpoles were placed in a petri dish containing aquarium water. Four to eight tadpoles were placed in each petri dish. The aquarium water contained the specified test compound at the listed concentration. When the tadpoles stopped moving, a plastic rod was used to elicit motion once again by contact between the rod and tadpole. […] From this and the number of subjects, the percent of tadpoles in which movement was suppressed were calculated.
# After 1 to 30 minutes, they were again contacted with a rod to ensure the anesthetic effect had worn off
# In some examples, subanesthetic concentrations of ethanol were added into the aquarium water. Tadpoles in which movement was prevented with exposure to a test compound and ethanol but not with exposure to a test compound alone were classified as partial anesthetics.
# [4] = test system: mouse; test: Anesthetic effect in mice after subcutaneous or intravenous injection of aqueous solutions; format: in vivo
# Experimental: Butyric acid was dissolved in water to form an 8 M solution. 0.5 mL of the 8 M solution of butyric acid was injected subcutaneously (at the back of the neck) into the mouse.
# 3-hydroxybutyric acid was dissolved in water to form 1 M, 1.5 M, and 2 M solutions. 0.2 mL of a 1.5 M solution of 3-hydroxybutyric acid was injected into a tail vein of a CD-1 mouse. […] This was repeated for at least 2 more times on subsequent days.
# Ethylmalonic acid was dissolved in water to form 2 M, 3 M, and 4 M solutions. 0.2 mL of a 3 M solution of ethylmalonic acid was injected into a tail vein of a mouse. […] This was repeated for at least 2 more times on subsequent days.
# Ethylmalonic acid was dissolved in water to form a 4 M solution. 0.5 mL of the 4 M solution of ethylmalonic acid was injected subcutaneously into the mouse.
# [5] = 0.5% metrazol tail vein infusion 0.34 mL/min
# [6] = 8 M butyric acid solution plus metrazol
# [7] = 1.5 M 3-hydroxybutyric acid solution plus metrazol
# [8] = Concentration (mM): 250 + 150 EtOH
# [9] = Concentration (mM): 25 + 150 EtOH
# [10] = Concentration (mM): 100 + 150 EtOH
# [11] = Concentration (mM): 20 + 150 EtOH
compound,measurement,setting,value
"C1CCc2nnnn2CC1 [Metrazol, pentylenetetrazol, reference compound]",Metrazol alone Time to Seizures,[1]; [5],43 seconds (2×) and 42 seconds (2×) and 59 seconds and 45 seconds and 39 seconds and 49 seconds (2×)
same,Metrazol alone Time to Twitch,[1]; [5],34 seconds (2×) and 33 seconds and 36 seconds (2×) and 37 seconds and 52 seconds and 31 seconds and 43 seconds
CCCC(=O)OCC [ethyl butyrate],Observed effect on the animals,[2],lethargic and those loss coordination
same,Lethality,[2]; 250 mM solution in intralipid,lethal
same,Lethality,[2]; 1M solution in intralipid,lethal
CCCC(=O)O [Butyric acid],Movement suppressed (%),[3]; Concentration (mM): 62.5,100%
same,Movement suppressed (%),[3]; Concentration (mM): 125,100%
same,Movement suppressed (%),[3]; Concentration (mM): 250,100%
same,Movement suppressed (%),[3]; Concentration (mM): 500,100%
same,Lethality,"[4]; 0.2 mL of 8 M solution in water, intravenously through mouse tail vein",lethal
same,Time until mouse woke up,"[4]; 0.5 mL of 8 M solution in water, subcutaneously (back of the neck), mouse",several hours later
same,Butyric Acid and Metrazol Time to Seizures,[1]; [6],51 seconds and 50 seconds (2×) and 47 seconds and 57 seconds (3×) and 42 seconds and 66 seconds and 41 seconds and 44 seconds and 38 seconds and 65 seconds
same,Butyric Acid and Metrazol Time to Twitch,[1]; [6],38 seconds and 42 seconds and 44 seconds and 50 seconds and 34 seconds (2×) and 53 seconds (2×) and 48 seconds and 36 seconds (2×) and 35 seconds (2×)
CC(O)CC(=O)O (stereo not shown) [3-hydroxybutyric acid],Observed effect on the mouse,"[4]; 0.2 mL of 1.5 M solution in water, tail vein, CD-1 mouse",became unconscious or anesthetic
same,Observed effect on the mouse,"[4]; 1 M solution in water, tail vein, CD-1 mouse",did not have any observable effect
same,Lethality,"[4]; 2 M solution in water, tail vein, CD-1 mouse",lethal
same,3-Hydroxybutyric Acid and Metrazol Time to Seizures,[1]; [7],74 seconds and 53 seconds (3×) and 48 seconds (2×) and 65 seconds and 61 seconds
same,3-Hydroxybutyric Acid and Metrazol Time to Twitch,[1]; [7],54 s and 49 s and 47 s and 38 s and 50 s and 45 s and 41 s and 56 s
CC(C)(C(=O)O)C(=O)O [Dimethylmalonic acid],Movement suppressed (%),[3]; Concentration (mM): 125,60%
same,Movement suppressed (%),[3]; Concentration (mM): 250,60%
CC(CC(=O)O)C(=O)O (stereo not shown) [Methylsuccinic acid],Movement suppressed (%),[3]; [8],43%
"CC(C)C(C(=O)O)C(=O)O [Isopropyl malonic acid, 2-isopropylmalonic acid]",Movement suppressed (%),[3]; Concentration (mM): 1.6,0%
same,Movement suppressed (%),[3]; Concentration (mM): 6.25,0%
same,Movement suppressed (%),[3]; Concentration (mM): 25,50%
same,Movement suppressed (%),[3]; [9],40%
"N[C@@H](CO)C(=O)O [L-Serine, Serine]",Movement suppressed (%),[3]; Concentration (mM): 114,0%
same,Movement suppressed (%),[3]; Concentration (mM): 229 + 150 EtOH,60%
same,Movement suppressed (%),[3]; Concentration (mM): 300 + 150 EtOH,100%
"NC(=O)C[C@H](N)C(=O)O [L-Asparagine, Asparagine]",Movement suppressed (%),[3]; Concentration (mM): 100,0%
same,Movement suppressed (%),[3]; [10],66%
"O=C(O)CCCCC(=O)O [Adipic acid, Hexanedioic acid]",Movement suppressed (%),[3]; Concentration (mM): 50,0%
same,Movement suppressed (%),[3]; Concentration (mM): 50 + 150 EtOH,83%
C[N+](C)(C)CCO [Choline],Movement suppressed (%),[3]; Concentration (mM): 46 + 150 EtOH,0%
same,Movement suppressed (%),[3]; [10],40%
same,Movement suppressed (%),[3]; Concentration (mM): 120 + 150 EtOH,66%
"O=C(O)C(=O)Cc1ccccc1 [Phenylpyruvic acid, 2-Oxo-3-phenylpropanoic acid]",Movement suppressed (%),[3]; Concentration (mM): 62.5,100%
same,Movement suppressed (%),[3]; Concentration (mM): 125,100%
"CC(=O)CCCC(=O)O [4-Acetylbutyric acid, 5-Oxohexanoic acid]",Movement suppressed (%),[3]; Concentration (mM): 25,0%
same,Movement suppressed (%),[3]; [9],80%
"CCC(C(=O)O)C(=O)O [Ethyl Malonic Acid, 2-Ethylmalonic acid]",Movement suppressed (%),[3]; Concentration (mM): 16,0%
same,Movement suppressed (%),[3]; Concentration (mM): 62.5,0%
same,Movement suppressed (%),[3]; Concentration (mM): 125,100%
same,Movement suppressed (%),[3]; Concentration (mM): 250,100%
same,Observed effect on the mouse,"[4]; 0.2 mL of 3 M solution in water, tail vein, mouse",became unconscious
same,Observed effect on the mouse,"[4]; 0.5 mL of 4 M solution in water, subcutaneously, mouse","became sedated, anesthetized, or lose consciousness"
same,Observed effect on the mouse,"[4]; 2 M solution in water, tail vein, mouse",did not have any observable effect
same,Lethality,"[4]; 4 M solution in water, tail vein, mouse",lethal
CCOC(=O)[C@@H](O)c1ccccc1 [ethyl (S)-(+)-mandelate],Observed effect on the animals,[2],lethargic and those loss coordination
same,Lethality,[2]; 250 mM solution in intralipid,lethal
same,Lethality,[2]; 1M solution in intralipid,lethal
O=C(O)[C@@H]1CCCN1 [Proline],Movement suppressed (%),[3]; Concentration (mM): 103,0%
same,Movement suppressed (%),[3]; Concentration (mM): 411 + 150 EtOH,100%
"CCOC(=O)C(CC)C(=O)OCC [diethyl ethyl malonate, Diethyl ethyl malonate]",Observed effect on the animals,[2],lethargic and those loss coordination
same,Lethality,[2]; 250 mM solution in intralipid,lethal
same,Lethality,[2]; 1M solution in intralipid,lethal
NC(=O)CC[C@H](N)C(=O)O [Glutamine],Movement suppressed (%),[3]; Concentration (mM): 25,0%
same,Movement suppressed (%),[3]; Concentration (mM): 50,100%
same,Movement suppressed (%),[3]; Concentration (mM): 100,100%
Succinic acid,Movement suppressed (%),[3]; Concentration (mM): 62.5,0%
N[C@@H](Cc1c[nH]c2ccccc12)C(=O)O [Tryptophan],Movement suppressed (%),[3]; Concentration (mM): 12.5,0%
same,Movement suppressed (%),[3]; Concentration (mM): 12.5 + 150 EtOH,80%
CCOC(=O)C(CC)(C(=O)OCC)c1ccccc1 [diethyl ethylphenylmalonate],Observed effect on the animals,[2],lethargic and those loss coordination
same,Lethality,[2]; 250 mM solution in intralipid,lethal
same,Lethality,[2]; 1M solution in intralipid,lethal
"CC(C)[C@H](N)C(=O)O [L-valine, Valine]",Movement suppressed (%),[3]; Concentration (mM): 7.8,0%
same,Movement suppressed (%),[3]; Concentration (mM): 31,0%
same,Movement suppressed (%),[3]; Concentration (mM): 125,0%
same,Movement suppressed (%),[3]; Concentration (mM): 500,40%
same,Movement suppressed (%),[3]; Concentration (mM): 500 + 150 EtOH,100%
"CCC(C)CC(=O)O (stereo not shown) [3-Methylvaleric acid, 3-Methylpentanoic acid]",Movement suppressed (%),[3]; Concentration (mM): 20,25%
same,Movement suppressed (%),[3]; [11],66%
"CC(=O)CCC(=O)O [Levulinic acid, 4-oxopentanoic acid]",Movement suppressed (%),[3]; [10],50%
Tartaric acid [L-Tartaric acid],Movement suppressed (%),[3]; Concentration (mM): 50,0%
CC(C)CCC(=O)O [4-Methylvaleric acid],Movement suppressed (%),[3]; Concentration (mM): 20,0%
same,Movement suppressed (%),[3]; [11],100%
ethyl isovaleric acid,Observed effect on the animals,[2],lethargic and those loss coordination
CC[C@H](C)[C@H](N)C(=O)O [Isoleucine],Movement suppressed (%),[3]; Concentration (mM): 25,0%
same,Movement suppressed (%),[3]; [10],60%
NCCCC[C@H](N)C(=O)O [Lysine],Movement suppressed (%),[3]; [8],50%

# Reference: US20220296584A1, “Membrane Active Molecules” (priority 2017, published 2022)
